Results on 31 compounds are retold here after patent US11802111B2, “Cyclobutyl amide monoacylglycerol lipase modulators” (Janssen Pharmaceutica NV, priority 2020, dated 2023).

By IC50 is commonly meant the point on the concentration scale where inhibition reaches its midpoint. Read a high IC50 as weaker potency in that assay.

In this assay the target is human MGL from HeLa cells (Homo sapiens (Human), UniProt Q99685). Kind of assay: MGL in vitro activity assay ([glycerol-1,3-3H]-oleoyl glycerol hydrolysis, activated carbon filtration). In kind it is biochemical. The note with it: 300 nM [Glycerol-1,3-3H]-oleoyl glycerol, one hour. The method, boiled down: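 Endogenous human MGL in HeLa cells/homogenates incubated 1 h with test compounds and 300 nM [glycerol-1,3-3H]-oleoyl glycerol. Released 3H-glycerol passing an activated carbon filter counted as activity; screening at 10 μM compound, top IC50 concentration set empirically.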
Chain of human MGL from HeLa cells (Q99685 whole entry): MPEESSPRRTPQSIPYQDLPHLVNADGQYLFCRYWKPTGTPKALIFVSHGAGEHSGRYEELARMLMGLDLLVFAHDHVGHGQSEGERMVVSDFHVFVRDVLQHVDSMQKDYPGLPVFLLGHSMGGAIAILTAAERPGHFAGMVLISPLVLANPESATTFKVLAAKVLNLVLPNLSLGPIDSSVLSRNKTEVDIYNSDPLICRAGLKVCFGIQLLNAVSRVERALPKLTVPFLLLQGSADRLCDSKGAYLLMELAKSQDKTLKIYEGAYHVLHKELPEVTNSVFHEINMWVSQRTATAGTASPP
On to `Cc1cc(OC2CC3(C2)CN(C(=O)[C@H]2C[C@@](C)(O)C2)C3)ccc1C(F)(F)F` [Example 247, ((1s,3s)-3-Hydroxy-3-methylcyclobutyl)(6-(3-methyl-4-(trifluoromethyl)phenoxy)-2-azaspiro[3.3]heptan-2-yl)methanone], for which the IC50 turned out to be 14 nM. The figure for `Cc1ccc(OC2CC3(C2)CN(C(=O)[C@H]2C[C@@](C)(O)C2)C3)cc1C(F)(F)F` [Example 248, ((1s,3s)-3-Hydroxy-3-methylcyclobutyl)(6-(4-methyl-3-(trifluoromethyl)phenoxy)-2-azaspiro[3.3]heptan-2-yl)methanone] is 114 nM; for `Cc1cc(C(F)(F)F)ccc1OC1CC2(C1)CN(C(=O)[C@H]1C[C@@](C)(O)C1)C2` [Example 249, ((1s,3s)-3-Hydroxy-3-methylcyclobutyl)(6-(2-methyl-4-(trifluoromethyl)phenoxy)-2-azaspiro[3.3]heptan-2-yl)methanone] it is 20 nM; for `Cc1cccc(OC2CC3(C2)CN(C(=O)[C@H]2C[C@@](C)(O)C2)C3)c1C(F)(F)F` [Example 250, ((1s,3s)-3-Hydroxy-3-methylcyclobutyl)(6-(3-methyl-2-(trifluoromethyl)phenoxy)-2-azaspiro[3.3]heptan-2-yl)methanone] it is 35 nM. Compound `CC(C)c1cccc(OC2CC3(C2)CN(C(=O)[C@H]2C[C@@](C)(O)C2)C3)c1C(F)(F)F` [Example 251, ((1s,3s)-3-Hydroxy-3-methylcyclobutyl)(6-(3-isopropyl-2-(trifluoromethyl)phenoxy)-2-azaspiro[3.3]heptan-2-yl)methanone] showed an IC50 of 7.4 nM.

The compound `Cc1c(OC2CC3(C2)CN(C(=O)[C@H]2C[C@@](C)(O)C2)C3)cccc1C(F)(F)F` [Example 252, ((1s,3s)-3-Hydroxy-3-methylcyclobutyl)(6-(2-methyl-3-(trifluoromethyl)phenoxy)-2-azaspiro[3.3]heptan-2-yl)methanone] came in with a half-inhibitory concentration (IC50) of 47 nM. In turn, `CC(C)(C)c1cccc(OC2CCC3(CC2)CN(C(=O)[C@H]2C[C@@](C)(O)C2)C3)c1` [Example 257, (7-(3-(tert-Butyl)phenoxy)-2-azaspiro[3.5]nonan-2-yl)((1s,3s)-3-hydroxy-3-methylcyclobutyl)methanone] registered an IC50 of 8.1 nM.

Turning to `Cc1cc(C(F)(F)F)ccc1OC1CCC2(CC1)CN(C(=O)[C@H]1C[C@@](C)(O)C1)C2` [Example 258, ((1s,3s)-3-Hydroxy-3-methylcyclobutyl)(7-(2-methyl-4-(trifluoromethyl)phenoxy)-2-azaspiro[3.5]nonan-2-yl)methanone], the IC50 is 0.2 nM.

In turn, `Cc1ccc(OC2CCC3(CC2)CN(C(=O)[C@H]2C[C@@](C)(O)C2)C3)cc1C(F)(F)F` [Example 259, ((1s,3s)-3-Hydroxy-3-methylcyclobutyl)(7-(4-methyl-3-(trifluoromethyl)phenoxy)-2-azaspiro[3.5]nonan-2-yl)methanone] came in with an IC50 of 3 nM. As to `CC(C)(C)c1ccc(OC2CCC3(CC2)CN(C(=O)[C@H]2C[C@@](C)(O)C2)C3)cc1` [Example 260, (7-(4-(tert-Butyl)phenoxy)-2-azaspiro[3.5]nonan-2-yl)((1s,3s)-3-hydroxy-3-methylcyclobutyl)methanone], the IC50 amounted to 10 nM. In turn, `C[C@]1(O)C[C@@H](C(=O)N2CC3(CCC(Oc4ccc(C5CC5)cc4)CC3)C2)C1` [Example 261, (7-(4-Cyclopropylphenoxy)-2-azaspiro[3.5]nonan-2-yl)((1s,3s)-3-hydroxy-3-methylcyclobutyl)methanone] registered an IC50 of 7.2 nM. The figure for `C[C@]1(O)C[C@@H](C(=O)N2CC3(CCC(Oc4ccc(OC(F)(F)F)cc4)CC3)C2)C1` [Example 262, ((1s,3s)-3-Hydroxy-3-methylcyclobutyl)(7-(4-(trifluoromethoxy)phenoxy)-2-azaspiro[3.5]nonan-2-yl)methanone] is 3.2 nM; for `C[C@]1(O)C[C@@H](C(=O)N2CC3(CCC(Oc4cccc(OC(F)(F)F)c4)CC3)C2)C1` [Example 263, ((1s,3s)-3-Hydroxy-3-methylcyclobutyl)(7-(3-(trifluoromethoxy)phenoxy)-2-azaspiro[3.5]nonan-2-yl)methanone] it is 12 nM. Turning to `C[C@]1(O)C[C@@H](C(=O)N2CC3(CCC(Oc4cccc(C5CC5)c4)CC3)C2)C1` [Example 264, (7-(3-Cyclopropylphenoxy)-2-azaspiro[3.5]nonan-2-yl)((1s,3s)-3-hydroxy-3-methylcyclobutyl)methanone], the IC50 came out at 32 nM. The compound `CC(C)c1ccccc1OC1CCC2(CC1)CN(C(=O)[C@H]1C[C@@](C)(O)C1)C2` [Example 265, ((1s,3s)-3-Hydroxy-3-methylcyclobutyl)(7-(2-isopropylphenoxy)-2-azaspiro[3.5]nonan-2-yl)methanone] showed an IC50 of 37 nM. Turning to `COC1(c2cccc(C(C)C)c2)CCC2(CC1)CN(C(=O)[C@H]1C[C@@](C)(O)C1)C2` [Example 266, ((1s,3s)-3-Hydroxy-3-methylcyclobutyl)(7-(3-isopropylphenyl)-7-methoxy-2-azaspiro[3.5]nonan-2-yl)methanone], the IC50 is 1.2 nM. The figure for `Cc1cc(C2CC3(C2)CN(C(=O)[C@H]2C[C@@](C)(O)C2)C3)cc(C(F)(F)F)c1` [Example 267, ((1s,3s)-3-Hydroxy-3-methylcyclobutyl)(6-(3-methyl-5-(trifluoromethyl)phenyl)-2-azaspiro[3.3]heptan-2-yl)methanone] is 65 nM; for `Cn1ccc2cc(C3CC4(C3)CN(C(=O)[C@H]3C[C@@](C)(O)C3)C4)cnc21` [Example 268, ((1s,3s)-3-Hydroxy-3-methylcyclobutyl)(6-(1-methyl-1H-pyrrolo[2,3-b]pyridin-5-yl)-2-azaspiro[3.3]heptan-2-yl)methanone] it is 2400 nM.

As to `Cn1ccc2ccc(C3CC4(C3)CN(C(=O)[C@H]3C[C@@](C)(O)C3)C4)nc21` [Example 269, ((1s,3s)-3-Hydroxy-3-methylcyclobutyl)(6-(1-methyl-1H-pyrrolo[2,3-b]pyridin-6-yl)-2-azaspiro[3.3]heptan-2-yl)methanone], the midpoint of inhibition, the IC50, lay at 507 nM.

The compound `COC1(Cc2ccccc2)CC2(CN(C(=O)[C@H]3C[C@@](C)(O)C3)C2)C1` [Example 270, (6-Benzyl-6-methoxy-2-azaspiro[3.3]heptan-2-yl)((1s,3s)-3-hydroxy-3-methylcyclobutyl)methanone] came in with an IC50 of 3290 nM.

In turn, `C[C@]1(O)C[C@@H](C(=O)N2CC3(CC(Cc4ccccc4C4CC4)C3)C2)C1` [Example 271, (6-(2-Cyclopropylbenzyl)-2-azaspiro[3.3]heptan-2-yl)((1s,3s)-3-hydroxy-3-methylcyclobutyl)methanone] showed an IC50 of 3.6 nM. For `C[C@]1(O)C[C@@H](C(=O)N2CC3(CC(Cc4ccc(OC5CC5)cc4)C3)C2)C1` [Example 272, (6-(4-Cyclopropoxybenzyl)-2-azaspiro[3.3]heptan-2-yl)((1s,3s)-3-hydroxy-3-methylcyclobutyl)methanone], it took 8.1 nM to reach half-maximal inhibition (IC50). For the compound `Cc1cc(F)ccc1CC1CC2(C1)CN(C(=O)[C@H]1C[C@@](C)(O)C1)C2` [Example 273, (6-(4-Fluoro-2-methylbenzyl)-2-azaspiro[3.3]heptan-2-yl)((1s,3s)-3-hydroxy-3-methylcyclobutyl)methanone], inhibition was half-maximal at 9.9 nM (IC50). For the compound `COc1ccc(CC2CC3(C2)CN(C(=O)[C@H]2C[C@@](C)(O)C2)C3)c(C(F)F)c1` [Example 274, (6-(2-(Difluoromethyl)-4-methoxybenzyl)-2-azaspiro[3.3]heptan-2-yl)((1s,3s)-3-hydroxy-3-methylcyclobutyl)methanone], the IC50 was 6.2 nM. For the compound `COc1cc(C(F)F)ccc1CC1CC2(C1)CN(C(=O)[C@H]1C[C@@](C)(O)C1)C2` [Example 275, (6-(4-(Difluoromethyl)-2-methoxybenzyl)-2-azaspiro[3.3]heptan-2-yl)((1s,3s)-3-hydroxy-3-methylcyclobutyl)methanone], the IC50 amounted to 0.44 nM. Take `COc1cc(CC2CC3(C2)CN(C(=O)[C@H]2C[C@@](C)(O)C2)C3)ccc1C(F)(F)F` [Example 276, ((1s,3s)-3-Hydroxy-3-methylcyclobutyl)(6-(3-methoxy-4-(trifluoromethyl)benzyl)-2-azaspiro[3.3]heptan-2-yl)methanone]: the IC50 was determined as 1 nM. For the compound `Cc1ccc(CC2CC3(C2)CN(C(=O)[C@H]2C[C@@](C)(O)C2)C3)nc1C(F)(F)F` [Example 277, ((1s,3s)-3-Hydroxy-3-methylcyclobutyl)(6-((5-methyl-6-(trifluoromethyl)pyridin-2-yl)methyl)-2-azaspiro[3.3]heptan-2-yl)methanone], the midpoint of inhibition, the IC50, lay at 18 nM.

For the compound `Cc1nc(CC2CC3(C2)CN(C(=O)[C@H]2C[C@@](C)(O)C2)C3)ccc1C(F)(F)F` [Example 278, ((1s,3s)-3-Hydroxy-3-methylcyclobutyl)(6-((6-methyl-5-(trifluoromethyl)pyridin-2-yl)methyl)-2-azaspiro[3.3]heptan-2-yl)methanone], the IC50 was determined as 16 nM. The figure for `Cc1ccc(CC2CC3(C2)CN(C(=O)[C@H]2C[C@@](C)(O)C2)C3)nc1OC(C)C` [Example 279, ((1s,3s)-3-Hydroxy-3-methylcyclobutyl)(6-((6-isopropoxy-5-methylpyridin-2-yl)methyl)-2-azaspiro[3.3]heptan-2-yl)methanone] is 10 nM; for `Cc1nc(CC2CC3(C2)CN(C(=O)[C@H]2C[C@@](C)(O)C2)C3)ccc1OC(F)F` [Example 280, (6-((5-(Difluoromethoxy)-6-methylpyridin-2-yl)methyl)-2-azaspiro[3.3]heptan-2-yl)((1s,3s)-3-hydroxy-3-methylcyclobutyl)methanone] it is 37 nM.

In turn, `COc1nc(CC2CC3(C2)CN(C(=O)[C@H]2C[C@@](C)(O)C2)C3)ccc1C(F)(F)F` [Example 281, ((1s,3s)-3-Hydroxy-3-methylcyclobutyl)(6-((6-methoxy-5-(trifluoromethyl)pyridin-2-yl)methyl)-2-azaspiro[3.3]heptan-2-yl)methanone] showed an IC50 of 1.2 nM.
